Experimental data published in EP4620957A1, “IMIDAZO[4,5-B]PYRIDIN-7-AMINE COMPOUNDS BINDING AURORA KINASE A AND USES THEREOF” (Eberhard Karls Universität Tübingen, priority 2024, dated 2025).

How the values were obtained:
AURKA = target: T1, AURKA (Mus musculus, UniProt P97477); experiment: Cellular Thermal Shift Assay (CETSA) in NMP53-/- cells; format: cell-based, murine; settings: 43.7- 47.9 °C
T1 construct: endogenous in cells; host or cells: NMP53-/- murine hepatocellular carcinoma cells
T1 sequence (P97477 1-395): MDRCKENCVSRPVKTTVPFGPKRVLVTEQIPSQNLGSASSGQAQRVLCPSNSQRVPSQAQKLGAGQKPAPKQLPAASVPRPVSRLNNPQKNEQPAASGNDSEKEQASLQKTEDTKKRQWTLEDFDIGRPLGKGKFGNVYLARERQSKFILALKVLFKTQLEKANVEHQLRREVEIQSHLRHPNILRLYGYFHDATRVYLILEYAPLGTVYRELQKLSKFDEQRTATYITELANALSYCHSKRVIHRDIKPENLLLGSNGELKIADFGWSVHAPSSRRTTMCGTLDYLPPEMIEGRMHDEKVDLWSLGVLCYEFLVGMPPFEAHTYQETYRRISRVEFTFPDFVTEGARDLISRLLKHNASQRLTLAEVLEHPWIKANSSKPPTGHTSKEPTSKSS

[1] = tested on: BNL CL.2 (non-transformed murine embryonic liver cell line); experiment: XTT cell viability assay (growth curves / growth inhibition); format: cell-based; settings: BNL CL.2 cells; at the IC95 concentration of EXAMPLE 3 against NMP53-/- cells; 48h
Description: (§1) In brief, cells were seeded in 6-well plates on day 1. On day 2, cells were treated with either EXAMPLE 3 (AURKA Ligand) or with DMSO (control). After 5 days, wells were washed and cells were fixed with 4% PFA and then stained with Crystal Violet solution. Plates were scanned and pictures were saved. (B) Crystal violet colony formation assay of NMP19-/- or NMP53 murine hepatocellular carcinoma cells. In brief, cells were seeded in 6-well plates on day 1. On day 2, cells were treated with MLN8237 (AURKA inhibitor) or with DMSO (control). After 5 days, wells were washed and cells were fixed with 4% PFA and then stained with Crystal Violet solution. Plates were scanned and pictures were saved. (C) AURKA kinase assay with the AURKA ligand EXAMPLE 3. The AURKA kinase assay was performed by Reaction Biology Corp. and it is based on radiometric ATP quantification. Compounds were received as 10 mM stock. […] Afterwards, an XTT cell viability assay was performed, based on the quantification of metabolic activity of alive cells. […] Finally, slides were mounted and analyzed in a fluorescent microscope. Bar graphs represent quantification of abnormal/normal spindles levels of (B) NMP53^-/- and (C) NMP19^-/- mitotic cells at time points after treatment with 15 nM of EXAMPLE 3. […] Subsequently, they were analyzed in a Flow Cytometry device for quantification of the amount of PI in each cell. […]

NMP19-/- = experiment: as above; format: cell-based, murine; settings: NMP19-/- cells; at the IC95 concentration of EXAMPLE 3 against NMP53-/- cells; 48h
Description: as §1

TPX2 = experiment: Cellular Thermal Shift Assay (CETSA) in NMP53-/- cells; format: cell-based, murine; settings: 43.7- 47.9 °C

In the case of `Cn1cc(-c2ccc(CNc3ccnc4[nH]c(CCc5ccco5)nc34)cc2)cn1` [Example 3, 2-(2-(furan-2-yl)ethyl)-N-(4-(1-methyl-1H-pyrazol-4-yl)benzyl)-3H-imidazo[4,5-b]pyridin-7-amine], the “thermal stabilization of AURKA (SDS-Page of soluble fraction)” value (AURKA) is reported as “stabilized”, the “growth inhibition in percentage” value [1] is reported as “no significant growth inhibition” and the “growth inhibition in percentage” value (NMP19-/-) is reported as “no significant growth inhibition”. The “thermal stabilization of TPX2 (SDS-Page of soluble fraction)” value (TPX2) was “stabilized”.
